One may read the IC50 as the concentration at which inhibition is half-maximal.

This experiment relates to Aβ42 production. The experiment is described as follows: Quantification of Aβ peptide in culture of neurons from rat fetus brain (Aβ ELISA). Format: cell-based. The conditions noted are these: Rattus norvegicus, Neuron, 72 h, rat primary neuronal culture (embryonic day 18 Wistar rat cerebral cortex); cultured three days after addition of compound; Aβx-42 ELISA of the medium; read-out: Aβ42 production reducing effect IC50. The method, then: Quantification of Aβ Peptide in Culture of Neurons from Rat Fetus Brain
(1) Rat Primary Neuronal Culture
Primary neuronal cultures were prepared from the cerebral cortex of embryonic day 18 Wistar rats (Charles River Japan, Yokohama, Japan). Specifically, the embryos were aseptically removed from pregnant rats under ether anesthesia. The brain was isolated from the embryo and immersed in an ice-cold L-15 medium (Invitrogen Corp. Cat #11415-064, Carlsbad, Calif., USA, or SIGMA L1518, for example). The cerebral cortex was collected from the isolated brain under a stereoscopic microscope. The cerebral cortex fragments collected were enzymatically treated in an enzyme solution containing 0.25% trypsin (Invitrogen Corp. Cat #15050-065, Carlsbad, Calif., USA) and 0.01% DNase (Sigma D5025, St. Louis, Mo., USA) at 37° C. for 30 minutes to disperse the cells. Here, the enzymatic reaction was stopped by adding inactivated horse serum to the solution. The enzymatically treated solution was centrifuged at 1,500 rpm for five minutes to remove the supernatant. 5 to 10 ml of a medium was added to the resulting cell mass. Neurobasal medium (Invitrogen Corp. Cat #21103-049, Carlsbad, Calif., USA) supplemented with 2% B27 supplement (Invitrogen Corp. Cat #17504-044, Carlsbad, Calif., USA), 25 μM 2-mercaptoethanol (2-ME, WAKO Cat #139-06861, Osaka, Japan), 0.5 mM L-glutamine (Invitrogen Corp. Cat #25030-081, Carlsbad, Calif., USA), and Antibiotics-Antimycotics (Invitrogen Corp. Cat #15240-062, Carlsbad, Calif., USA) was used as the medium (Neurobasal/B27/2-ME). However, the above Neurobasal medium not supplemented with 2-ME (Neurobasal/B27) was used for the assay. The cells were redispersed by mild pipetting of the cell mass to which the medium was added. The cell dispersion was filtered through a 40-μm nylon mesh (Cell Strainer, Cat #35-2340, Becton Dickinson Labware, Franklin Lakes, N.J., USA) to remove the remaining cell mass, and thus a neuronal cell suspension was obtained. The neuronal cell suspension was diluted with the medium and then plated in a volume of 100 μl/well at an initial cell density of 5×10^5 cells/cm^2 in a 96-well polystyrene culture plate pre-coated with poly-L or D-lysine (Falcon Cat #35-3075, Becton Dickinson Labware, Franklin Lakes, N.J., USA coated with poly-L-lysine using the method shown below, or BIOCOAT™ cell environments Poly-D-lysine cell ware 96-well plate, Cat #35-6461, Becton Dickinson Labware, Franklin Lakes, N.J., USA). Poly-L-lysine coating was carried out as follows. 100 μg/ml of a poly-L-lysine (SIGMA P2636, St. Louis, Mo., USA) solution was aseptically prepared with a 0.15 M borate buffer (pH 8.5). 100 μl/well of the solution was added to the 96-well polystyrene culture plate and incubated at room temperature for one or more hours or at 4° C. overnight or longer. The coated 96-well polystyrene culture plate was washed with sterile water four or more times, and then dried or rinsed with, for example, sterile PBS or medium, and used for cell plating. The plated cells were cultured in the culture plate at 37° C. in 5% CO2-95% air for one day. Then, the total amount of the medium was replaced with a fresh Neurobasal™/B27/2-ME medium, and then the cells were cultured for further three days.
The drug was added to the culture plate on Day 4 of culture as follows. The total amount of the medium was removed from the wells, and 180 μl/well of Neurobasal medium not containing 2-ME and containing 2% B-27 (Neurobasal/B27) was added thereto. A solution of the test compound in dimethyl sulfoxide (hereinafter abbreviated as DMSO) was diluted with Neurobasal/B27 at 10-fold of the final concentration. 20 μl/well of the dilution was added to and sufficiently mixed with the medium. The final DMSO concentration was 1% or less. Only DMSO was added to the control group.
The cells were cultured for three days after addition of the compound, and the total amount of the medium was collected. […]
(An ELISA detects its analyte on a solid surface through an enzyme-linked reagent.)
As to `COc1nc(/C=C/c2nc3n(n2)CCCC3c2ccc(F)cc2)ccc1-n1cnc(C)c1` (single isomer, unassigned) [Example 173, (−)-8-(4-fluorophenyl)-2-{(E)-2-[6-methoxy-5-(4-methyl-1H-imidazol-1-yl)pyridin-2-yl]vinyl}-5,6,7,8-tetrahydro-[1,2,4]triazolo[1,5-a]pyridine], the IC50 turned out to be 37 nM.
Turning to `COc1cc(/C=C/c2nc3n(n2)CCCC3c2ccccc2C(F)(F)F)ccc1-n1cnc(C)c1` (single isomer, unassigned; (-)) [Example 311, (−)-2-{(E)-2-[3-methoxy-4-(4-methyl-1H-imidazol-1-yl)phenyl]vinyl}-8-(2-trifluoromethylphenyl)-5,6,7,8-tetrahydro-[1,2,4]triazolo[1,5-a]pyridine], the IC50 was found to be 11 nM.
Take `COc1cc(/C=C/c2nc3n(n2)CC[C@@H](C)[C@@H]3c2ccc(F)cc2)ccc1-n1cnc(C)c1` [Example 102, (7R,8R)-8-(4-fluorophenyl)-2-{(E)-2-[3-methoxy-4-(4-methyl-1H-imidazol-1-yl)phenyl]vinyl}-7-methyl-5,6,7,8-tetrahydro-[1,2,4]triazolo[1,5-a]pyridine]: the IC50 was found to be 20 nM.
Consider `COc1cc(/C=C/c2nc3n(n2)CCC3c2ccccc2C(F)(F)F)ccc1-n1cnc(C)c1` (single isomer, unassigned; (-)) [Example 317, (−)-2-{(E)-2-[3-methoxy-4-(4-methyl-1H-imidazol-1-yl)phenyl]vinyl}-7-(2-trifluoromethylphenyl)-6,7-dihydro-5H-pyrrolo[1,2-b][1,2,4]triazole], for which the IC50 turned out to be 25 nM.
As to `COc1cc(/C=C/c2nc3n(n2)CCCC3c2ccc(SC)cc2)ccc1-n1cnc(C)c1` (single isomer, unassigned; (-)) [Example 7, (−)-2-{(E)-2-[3-methoxy-4-(4-methyl-1H-imidazol-1-yl)phenyl]vinyl}-8-(4-methylsulfanylphenyl)-5,6,7,8-tetrahydro-[1,2,4]triazolo[1,5-a]pyridine], the IC50 worked out at 30 nM.
Consider `COc1cc(/C=C/c2nc3n(n2)CCC/C3=C\c2ccccc2)ccc1-n1cnc(C)c1` [Example 12, 2-{(E)-2-[3-methoxy-4-(4-methyl-1H-imidazol-1-yl)phenyl]vinyl}-8-[1-phenylmethy-(E)-lidene]-5,6,7,8-tetrahydro[1,2,4]triazolo[1,5-a]pyridine], for which the half-inhibitory concentration (IC50) stood at 135 nM.
The figure for `COc1cc(/C=C/c2nc3n(n2)CCCC3c2ccc(C(C)C)cc2)ccc1-n1cnc(C)c1` (single isomer, unassigned; (-)) [Example 5, (−)-8-(4-isopropylphenyl)-2-{(E)-2-[3-methoxy-4-(4-methyl-1H-imidazol-1-yl)phenyl]vinyl}-5,6,7,8-tetrahydro[1,2,4]triazolo[1,5-a]pyridine] is 21 nM; for `COc1nc(/C=C/c2nc3n(n2)CCC[C@@H]3c2cc(F)ccc2F)ccc1-n1cnc(C)c1` (single isomer, unassigned) [Example 183, (−)-8-(2,5-difluorophenyl)-2-{(E)-2-[6-methoxy-5-(4-methyl-1H-imidazol-1-yl)pyridin-2-yl]vinyl}-5,6,7,8-tetrahydro[1,2,4]triazolo[1,5-a]pyridine] it is 48 nM.
The figure for `COc1nc(/C=C/c2nc3n(n2)CCCC3c2cc(F)ccc2C(F)(F)F)ccc1-n1cnc(C)c1` (single isomer, unassigned; (-)) [Example 329, (−)-8-(5-fluoro-2-trifluoromethylphenyl)-2-{(E)-2-[6-methoxy-5-(4-methyl-1H-imidazol-1-yl)pyridin-2-yl]vinyl}-5,6,7,8-tetrahydro-[1,2,4]triazolo[1,5-a]pyridine] is 17 nM.
The figure for `COc1nc(/C=C/c2nc3n(n2)CCCN3c2ccccc2)ccc1-n1cnc(C)c1` [Example 233, 2-{(E)-2-[6-methoxy-5-(4-methyl-1H-imidazol-1-yl)pyridin-2-yl]vinyl}-4-phenyl-4,5,6,7-tetrahydro-[1,2,4]triazolo[1,5-a]pyrimidine] is 42 nM; for `COc1nc(/C=C/c2nc3n(n2)CCCN3c2ccc(Cl)cc2)ccc1-n1cnc(C)c1` [Example 232, 4-(4-chlorophenyl)-2-{(E)-2-[6-methoxy-5-(4-methyl-1H-imidazol-1-yl)pyridin-2-yl]vinyl}-4,5,6,7-tetrahydro-[1,2,4]triazolo[1,5-a]pyrimidine] it is 33 nM; for `COc1cc(/C=C/c2nc3n(n2)C[C@H](C)C[C@@H]3c2ccc(F)cc2)ccc1-n1cnc(C)c1` [Example 97, (6R,8R)-8-(4-fluorophenyl)-2-{(E)-2-[3-methoxy-4-(4-methyl-1H-imidazol-1-yl)phenyl]vinyl}-6-methyl-5,6,7,8-tetrahydro-[1,2,4]triazolo[1,5-a]pyridine] it is 38 nM.
Regarding `COc1nc(/C=C/c2nc3n(n2)CCC[C@H]3c2ccccc2C(F)(F)F)ccc1-n1cnc(C)c1` (single isomer, unassigned) [Example 195], the IC50 turned out to be 17 nM.
Turning to `COc1cc(/C=C/c2nc3n(n2)C[C@@H](C)C[C@@H]3c2ccc(F)cc2)ccc1-n1cnc(C)c1` [Example 99, (6S,8R)-8-(4-fluorophenyl)-2-{(E)-2-[3-methoxy-4-(4-methyl-1H-imidazol-1-yl)phenyl]vinyl}-6-methyl-5,6,7,8-tetrahydro-[1,2,4]triazolo[1,5-a]pyridine], the IC50 amounted to 20 nM.
With `COc1nc(/C=C/c2nc3n(n2)CCC(C)N3c2ccccc2C(F)(F)F)ccc1-n1cnc(C)c1` (stereo not shown) [Example 373, 2-{(E)-2-[6-methoxy-5-(4-methyl-1H-imidazol-1-yl)pyridin-2-yl]vinyl}-5-methyl-4-(2-trifluoromethylphenyl)-4,5,6,7-tetrahydro-[1,2,4]triazolo[1,5-a]pyrimidine], the IC50 is 29 nM.
The figure for `COc1nc(/C=C/c2nc3n(n2)CCCC3c2ccccc2Br)ccc1-n1cnc(C)c1` (single isomer, unassigned; (-)) [Example 290, (−)-8-(2-bromophenyl)-2-{(E)-2-[6-methoxy-5-(4-methyl-1H-imidazol-1-yl)pyridin-2-yl]vinyl}-5,6,7,8-tetrahydro-[1,2,4]triazolo[1,5-a]pyridine] is 16 nM.
For the compound `COc1nc(/C=C/c2nc3n(n2)CCC[C@H]3c2cccc(F)c2F)ccc1-n1cnc(C)c1` (single isomer, unassigned) [Example 280, (−)-8-(2,3-difluorophenyl)-2-{(E)-2-[6-methoxy-5-(4-methyl-1H-imidazol-1-yl)pyridin-2-yl]vinyl}-5,6,7,8-tetrahydro-[1,2,4]triazolo[1,5-a]pyridine], the IC50 came out at 18 nM.
With `COc1cc(/C=C(\F)c2nc3n(n2)CCC[C@]3(O)c2cc(F)c(F)c(F)c2)ccc1-n1cnc(C)c1` (single isomer, unassigned) [Example 94, (−)-2-{(Z)-1-fluoro-2-[3-methoxy-4-(4-methyl-1H-imidazol-1-yl)phenyl]vinyl}-8-(3,4,5-trifluorophenyl)-5,6,7,8-tetrahydro[1,2,4]triazolo[1,5-a]pyridin-8-ol], the IC50 stood at 52 nM.
Regarding `CCCCC(O)c1ccc([C@H]2CCCn3nc(/C=C/c4ccc(-n5cnc(C)c5)c(OC)c4)nc32)cc1` (single isomer, unassigned) [Example 19, 1-{4-{2-{(E)-2-[3-methoxy-4-(4-methyl-1H-imidazol-1-yl)phenyl]vinyl}-5,6,7,8-tetrahydro[1,2,4]triazolo[1,5-a]pyridin-8-yl}phenyl}pentan-1-ol], the IC50 was 43 nM.

The values are drawn from patent US7935815B2, “Imidazoyl pyridine compounds and salts thereof” (Eisai R&D Management Co., Ltd., priority 2007, dated 2011).
